From the supplement of paper PMC10627819

What was measured:
[1] = tested on: S. aureus Newman; experiment: Bliss interaction score (quartile over a dose matrix) (fitness difference); higher = more antagonism (negative = synergy)
How it was run: (§1)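 Combination data were used to infer fitness under each single drug. Fitness is the OD595 at entry into stationary phase divided by the robust mean of the plate's no-drug wells, with a cap of 1. The Bliss score is the observed minus the expected product fitness, summarised by quartiles over technical, biological and donor/recipient replicates.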

[2] = tested on: S. aureus DSM 20231; experiment: as above
How it was run: as §1

[3] = tested on: B. subtilis 168; experiment: as above
How it was run: as §1

[4] = tested on: S. pneumoniae D39V; experiment: as above
How it was run: as §1

[5] = tested on: S. aureus Newman; experiment: fitness (endpoint OD595 vs no drug) (fraction); higher = more growth
How it was run: (§2)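 Cultures at OD595 0.01 were dispensed into 384-well plates in TSB, LB Lennox or CY and incubated at 37 °C. Every 30 min for 14 h, OD595 was read and corrected by the first reading. Fitness is the optical density at entry into stationary phase relative to the robust mean of no-drug control wells, capped at 1.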

[6] = tested on: S. aureus DSM 20231; experiment: as above
How it was run: as §2

[7] = tested on: B. subtilis 168; experiment: as above
How it was run: as §2

[8] = tested on: S. pneumoniae D39V; experiment: as above
How it was run: as §2
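Wherever Bliss interaction score (quartile over a dose matrix) is given: first quartile when negative (synergy) and third quartile when positive (antagonism).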

CCCCCCCCCC(=O)N[C@@H](Cc1c[nH]c2ccccc12)C(=O)N[C@H](CC(N)=O)C(=O)N[C@@H](CC(=O)O)C(=O)N[C@@H]1C(=O)NCC(=O)N[C@@H](CCCN)C(=O)N[C@@H](CC(=O)O)C(=O)N[C@H](C)C(=O)N[C@@H](CC(=O)O)C(=O)NCC(=O)N[C@H](CO)C(=O)N[C@@H]([C@H](C)CC(=O)O)C(=O)N[C@@H](CC(=O)c2ccccc2N)C(=O)O[C@@H]1C [Daptomycin] + Cc1cc(NS(=O)(=O)c2ccc(N)cc2)no1 [Sulfamethoxazol]
Settings	Bliss interaction score
[1]	0.0337
[2]	0.041
[3]	-0.0776
[4]	0.0745

fitness
Settings	partner 1 µg/mL	partner 2 µg/mL	partner 4 µg/mL
[5], first compound 0.125 µg/mL	0.967	0.99	≥ 1
[5], first compound 0.25 µg/mL	0.967	0.977	≥ 1
[5], first compound 0.5 µg/mL	0.992	0.971	≥ 1
[6], first compound 0.5 µg/mL	0.914	≥ 1	≥ 1
[6], first compound 1 µg/mL	0.918	0.988	0.976
[6], first compound 2 µg/mL	0.913	0.988	0.963
[7], first compound 0.125 µg/mL	0.893	0.821	0.938
[7], first compound 0.25 µg/mL	0.895	0.885	0.856
[7], first compound 0.5 µg/mL	0.928	0.814	–
[8], first compound 1 µg/mL	0.932	0.95	0.964
[8], first compound 2 µg/mL	0.924	0.901	0.935
[8], first compound 4 µg/mL	0.916	0.938	0.938

one replicate
Settings	fitness
[5], first compound 0.5 µg/mL, partner 8 µg/mL	0.954
[5], first compound 1 µg/mL, partner 2 µg/mL	≥ 1
[5], first compound 1 µg/mL, partner 4 µg/mL	0.986
[5], first compound 1 µg/mL, partner 8 µg/mL	0.973
[5], first compound 2 µg/mL, partner 2 µg/mL	0.994
[5], first compound 2 µg/mL, partner 4 µg/mL	≥ 1
[5], first compound 2 µg/mL, partner 8 µg/mL	0.983
[6], first compound 0.125 µg/mL, partner 1 µg/mL	0.926
[6], first compound 0.125 µg/mL, partner 2 µg/mL	≥ 1
[6], first compound 0.125 µg/mL, partner 4 µg/mL	≥ 1
[6], first compound 0.25 µg/mL, partner 1 µg/mL	0.951
[6], first compound 0.25 µg/mL, partner 2 µg/mL	≥ 1
[6], first compound 0.25 µg/mL, partner 4 µg/mL	0.974
[7], first compound 0.125 µg/mL, partner 0.5 µg/mL	0.919
[7], first compound 0.25 µg/mL, partner 0.5 µg/mL	0.908
[7], first compound 0.5 µg/mL, partner 0.5 µg/mL	0.969
[7], first compound 1 µg/mL, partner 1 µg/mL	0.719
[7], first compound 1 µg/mL, partner 2 µg/mL	0.72
[7], first compound 1 µg/mL, partner 4 µg/mL	0.645

CCCCCCCCCC(=O)N[C@@H](Cc1c[nH]c2ccccc12)C(=O)N[C@H](CC(N)=O)C(=O)N[C@@H](CC(=O)O)C(=O)N[C@@H]1C(=O)NCC(=O)N[C@@H](CCCN)C(=O)N[C@@H](CC(=O)O)C(=O)N[C@H](C)C(=O)N[C@@H](CC(=O)O)C(=O)NCC(=O)N[C@H](CO)C(=O)N[C@@H]([C@H](C)CC(=O)O)C(=O)N[C@@H](CC(=O)c2ccccc2N)C(=O)O[C@@H]1C [Daptomycin] + Cc1ncc([N+](=O)[O-])n1CCO [Metronidazole]
Settings	Bliss interaction score
[1]	0.0422
[2]	0.0276
[3]	-0.0566
[4]	0.0723

fitness
Settings	partner 0.625 µg/mL	partner 1.073 µg/mL	partner 1.25 µg/mL	partner 2.145 µg/mL	partner 2.5 µg/mL	partner 4.29 µg/mL	partner 5 µg/mL
[5], first compound 0.125 µg/mL	0.935	–	≥ 1	–	0.982	–	–
[5], first compound 0.25 µg/mL	0.951	–	≥ 1	–	0.994	–	–
[5], first compound 0.5 µg/mL	≥ 1	–	≥ 1	–	0.975	–	–
[6], first compound 0.125 µg/mL	0.924	–	≥ 1	–	0.983	–	–
[6], first compound 0.25 µg/mL	0.932	–	≥ 1	–	≥ 1	–	–
[6], first compound 0.5 µg/mL	≥ 1	–	≥ 1	–	≥ 1	–	–
[6], first compound 1 µg/mL	≥ 1	–	≥ 1	–	≥ 1	–	–
[6], first compound 2 µg/mL	≥ 1	–	≥ 1	–	≥ 1	–	–
[7], first compound 0.125 µg/mL	0.942	–	0.892	–	0.93	–	–
[7], first compound 0.25 µg/mL	0.899	–	0.966	–	0.944	–	–
[7], first compound 0.5 µg/mL	0.935	–	0.904	–	0.874	–	–
[8], first compound 1 µg/mL	–	0.846	0.977	0.786	≥ 1	0.777	0.993
[8], first compound 2 µg/mL	–	0.9	0.985	0.876	≥ 1	0.87	≥ 1
[8], first compound 4 µg/mL	–	0.949	0.93	0.888	0.97	0.928	0.976

fitness, one replicate
Settings	partner 0.625 µg/mL	partner 0.781 µg/mL	partner 1.25 µg/mL	partner 1.562 µg/mL	partner 2.5 µg/mL	partner 3.124 µg/mL
[5], first compound 0.125 µg/mL	–	≥ 1	–	≥ 1	–	≥ 1
[5], first compound 0.25 µg/mL	–	≥ 1	–	≥ 1	–	≥ 1
[5], first compound 0.5 µg/mL	–	≥ 1	–	≥ 1	–	≥ 1
[7], first compound 1 µg/mL	0.736	–	0.806	–	0.754	–
